Experimental findings from patent US11136313B2, “Compounds, compositions, and methods for modulating CFTR” (Proteostasis Therapeutics, Inc., priority 2015, dated 2021) are described below.

In this assay the target is T1, ΔF508-CFTR (Homo sapiens, UniProt P13569, DEL508-508).
T1 construct: Primary lung epithelial cells homozygous for the Cystic Fibrosis-causing ΔF508 mutation were differentiated for a minimum of 4 weeks; endogenous in cells; host or cells: primary lung epithelial cells (hBE) homozygous for ΔF508, differentiated at an air-liquid interface
T1 sequence (P13569 with tags, fused parts or gaps DEL508-508): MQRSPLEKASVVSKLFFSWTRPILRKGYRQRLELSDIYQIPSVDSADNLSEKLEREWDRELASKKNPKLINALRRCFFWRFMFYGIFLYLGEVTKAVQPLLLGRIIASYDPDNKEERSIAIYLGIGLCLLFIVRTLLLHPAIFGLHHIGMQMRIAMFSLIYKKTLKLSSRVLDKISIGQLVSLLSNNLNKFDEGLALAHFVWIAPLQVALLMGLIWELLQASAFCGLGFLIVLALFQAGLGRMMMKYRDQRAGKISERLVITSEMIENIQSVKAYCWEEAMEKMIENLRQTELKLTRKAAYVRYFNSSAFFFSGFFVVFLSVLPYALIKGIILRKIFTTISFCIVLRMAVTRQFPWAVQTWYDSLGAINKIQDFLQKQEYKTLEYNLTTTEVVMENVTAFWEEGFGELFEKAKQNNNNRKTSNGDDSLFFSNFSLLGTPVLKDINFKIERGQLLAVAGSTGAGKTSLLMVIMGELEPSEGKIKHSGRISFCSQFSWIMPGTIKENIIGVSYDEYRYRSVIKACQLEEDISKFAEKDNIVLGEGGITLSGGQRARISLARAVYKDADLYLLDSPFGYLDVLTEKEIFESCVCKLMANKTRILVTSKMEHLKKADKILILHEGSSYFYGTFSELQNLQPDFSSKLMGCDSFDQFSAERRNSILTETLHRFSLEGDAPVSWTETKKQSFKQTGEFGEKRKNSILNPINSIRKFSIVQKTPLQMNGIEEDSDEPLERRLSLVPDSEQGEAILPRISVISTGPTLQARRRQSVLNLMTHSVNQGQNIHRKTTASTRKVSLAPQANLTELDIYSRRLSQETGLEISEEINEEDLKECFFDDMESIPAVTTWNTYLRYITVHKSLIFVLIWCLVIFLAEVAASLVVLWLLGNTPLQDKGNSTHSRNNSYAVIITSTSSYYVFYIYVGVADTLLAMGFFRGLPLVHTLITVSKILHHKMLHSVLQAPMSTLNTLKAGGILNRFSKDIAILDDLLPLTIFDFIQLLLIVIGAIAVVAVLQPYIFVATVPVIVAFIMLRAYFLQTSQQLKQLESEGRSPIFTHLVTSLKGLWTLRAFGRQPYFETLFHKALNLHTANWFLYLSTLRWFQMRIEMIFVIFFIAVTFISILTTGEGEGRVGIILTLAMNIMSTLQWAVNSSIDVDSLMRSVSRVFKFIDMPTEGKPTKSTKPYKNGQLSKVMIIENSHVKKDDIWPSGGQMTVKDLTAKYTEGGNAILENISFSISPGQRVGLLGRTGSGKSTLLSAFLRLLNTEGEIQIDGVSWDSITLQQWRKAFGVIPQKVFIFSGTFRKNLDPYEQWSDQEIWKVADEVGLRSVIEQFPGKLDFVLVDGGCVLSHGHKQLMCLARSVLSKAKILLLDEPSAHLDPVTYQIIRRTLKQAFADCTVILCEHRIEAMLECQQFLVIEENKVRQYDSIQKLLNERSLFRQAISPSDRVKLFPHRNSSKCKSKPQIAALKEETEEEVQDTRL
As to the kind of experiment: hBE equivalent current (Ieq) assay: AUC of equivalent chloride current after forskolin/VX-770 in primary lung epithelial cells homozygous for ΔF508. In kind it is cell-based. The following applies: relative to CFTR amplifier (Compound A)+VX-809 (3 uM), compound at 10 uM and Compound A at 3 uM, 24 h treatment. The gist of the method: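 Readout is the increase over vehicle in equivalent chloride current AUC from forskolin/VX-770 addition to bumetanide, measured by current clamp at 36 °C after benzamil block of ENaC. Cultures were homozygous ΔF508 primary lung epithelium grown ≥4 weeks at air-liquid interface and exposed basolaterally to compound for 24 h.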
Consider `CCc1ccc(OCCc2cccnc2)c2c(C(=O)O)cc(-c3sc4ccccc4c3C)nc12` [Compound 141, 8-Ethyl-2-(3-methyl-1-benzothiophen-2-yl)-5-[2-(pyridin-3-yl)ethoxy]quinoline-4-carboxylic Acid], for which the Activity entry was “+ (activity<50% of an CFTR amplifier (Compound A)+VX-809 (3 uM) with compound at 10 uM and Compound A at 3 uM)”.
Consider `Cc1c(-c2cc(C(=O)[O-])c3c(OC[C@H]4C[C@@](C)(O)C4)ccc(C)c3n2)sc2ccccc12.[Na+]` [Compound 320], for which the Activity result is “++ (activity>50% of CFTR amplifier+VX-809 (3 uM) with compound at 10 uM and Compound A at 3 uM)”.
Regarding `Cc1c(-c2cc(C(=O)[O-])c3c(OC4CC(C)(C)OC(C)(C)C4)ccc(C)c3n2)sc2ccccc12.[Na+]` [Compound 333], the Activity result was “++ (activity>50% of CFTR amplifier+VX-809 (3 uM) with compound at 10 uM and Compound A at 3 uM)”.
In the case of `Cc1c(-c2cc(C(=O)[O-])c3c(O[C@@H]4C[C@H]5CC[C@@H](C4)O5)ccc(C)c3n2)sc2ccccc12.[Na+]` [Compound 352], the Activity entry was “++ (activity>50% of CFTR amplifier+VX-809 (3 uM) with compound at 10 uM and Compound A at 3 uM)”.
With `Cc1c(-c2cc(C(=O)[O-])c3c(O[C@@H]4CCc5ccccc5C4)ccc(C)c3n2)oc2ccccc12.[Na+]` [Compound 249], the Activity entry is “++ (activity>50% of CFTR amplifier+VX-809 (3 uM) with compound at 10 uM and Compound A at 3 uM)”.
`CCc1ccc(OCc2cccc([S+](C)[O-])c2)c2c(C(=O)O)cc(-c3oc4ccccc4c3C)nc12` (stereo not shown) [Compound 142, 8-Ethyl-5-[(3-methanesulfinylphenyl)methoxy]-2-(3-methyl-1-benzofuran-2-yl)quinoline-4-carboxylic Acid]: the Activity entry was “++ (activity>50% of CFTR amplifier+VX-809 (3 uM) with compound at 10 uM and Compound A at 3 uM)”.
For the compound `Cc1c(-c2cc(C(=O)[O-])c3c(O[C@H]4CCC[C@@H](C)C4)ccc(C)c3n2)sc2ccccc12.[Na+]` [Compound 219, Sodium 8-Methyl-2-(3-methyl-1-benzothiophen-2-yl)-5-[[(1S,3R)-3-methylcyclohexyl]oxy]quinoline-4-carboxylic acid], the Activity result was “++ (activity>50% of CFTR amplifier+VX-809 (3 uM) with compound at 10 uM and Compound A at 3 uM)”.
As to `Cc1c(-c2cc(C(=O)[O-])c3c(O[C@@H]4CCC[C@H](c5ccccc5)C4)ccc(C)c3n2)oc2ccccc12.[Na+]` [Compound 300], the Activity result is “++ (activity>50% of CFTR amplifier+VX-809 (3 uM) with compound at 10 uM and Compound A at 3 uM)”.
For `Cc1c(-c2cc(C(=O)[O-])c3c(O[C@@H]4CCC[C@H](C)C4)ccc(C)c3n2)sc2ccccc12.[Na+]` [Compound 218, Sodium 8-Methyl-2-(3-methyl-1-benzothiophen-2-yl)-5-[[(1R,3S)-3-methylcyclohexyl]oxy]quinoline-4-carboxylate], the Activity entry is “++ (activity>50% of CFTR amplifier+VX-809 (3 uM) with compound at 10 uM and Compound A at 3 uM)”.
As for `Cc1ccc(C)c2c(C(=O)O)cc(-c3oc4ccccc4c3Cl)nc12` [Compound 38, 2-(3-Chloro-1-benzofuran-2-yl)-5,8-dimethylquinoline-4-carboxylic acid], the Activity entry is “+ (activity<50% of an CFTR amplifier (Compound A)+VX-809 (3 uM) with compound at 10 uM and Compound A at 3 uM)”.
With `COCC[C@@H](Oc1ccc(C)c2nc(-c3sc4ccccc4c3C)cc(C(=O)[O-])c12)c1ccccc1.[Na+]` [Compound 313] the entry was “++ (activity>50% of CFTR amplifier+VX-809 (3 uM) with compound at 10 uM and Compound A at 3 uM)”; with `Cc1c(-c2cc(C(=O)O)c3c(OC(F)F)ccc(C)c3n2)oc2ccccc12` [Compound 120, 5-(Difluoromethoxy)-8-methyl-2-(3-methyl-1-benzofuran-2-yl)quinoline-4-carboxylic acid], “++ (activity>50% of CFTR amplifier+VX-809 (3 uM) with compound at 10 uM and Compound A at 3 uM)”.
With `Cc1c(-c2cc(C(=O)O)c3cc(-c4ccccc4)cc(C)c3n2)oc2ccccc12` [Compound 37], the Activity entry was “++ (activity>50% of CFTR amplifier+VX-809 (3 uM) with compound at 10 uM and Compound A at 3 uM)”.
`Cc1cc(C)c2nc(-c3cc4ccccc4o3)cc(C(=O)O)c2c1` [Compound 6, 2-(1-Benzofuran-2-yl)-6,8-dimethylquinoline-4-carboxylic acid]: the Activity entry is “+ (activity<50% of an CFTR amplifier (Compound A)+VX-809 (3 uM) with compound at 10 uM and Compound A at 3 uM)”.
Take `Cc1c(-c2cc(C(=O)O)c3cc(F)cc(C)c3n2)oc2ccccc12` [Compound 20, 6-Fluoro-8-methyl-2-(3-methylbenzofuran-2-yl)quinoline-4-carboxylic acid]: the Activity entry was “++ (activity>50% of CFTR amplifier+VX-809 (3 uM) with compound at 10 uM and Compound A at 3 uM)”.
As for `Cc1c(-c2cc(C(=O)O)c3c(C)ccc(C)c3n2)oc2c(Cl)cccc12` [Compound 129, 2-(7-Chloro-3-methylbenzofuran-2-yl)-5,8-dimethylquinoline-4-carboxylic acid], the entry is “+ (activity<50% of an CFTR amplifier (Compound A)+VX-809 (3 uM) with compound at 10 uM and Compound A at 3 uM)”; as for `Cc1oc2ccccc2c1-c1cc(C(=O)O)c2c(OC(F)F)ccc(C)c2n1` [Compound 123, 5-(Difluoromethoxy)-8-methyl-2-(2-methyl-1-benzofuran-3-yl)quinoline-4-carboxylic acid], “+ (activity<50% of an CFTR amplifier (Compound A)+VX-809 (3 uM) with compound at 10 uM and Compound A at 3 uM)”.
As to `CCc1ccc(OCc2ccccc2)c2c(C(=O)O)cc(-c3oc4ccccc4c3C)nc12` [Compound 108, 5-(benzyloxy)-8-ethyl-2-(3-methyl-1-benzofuran-2-yl)quinoline-4-carboxylic acid], the Activity entry is “++ (activity>50% of CFTR amplifier+VX-809 (3 uM) with compound at 10 uM and Compound A at 3 uM)”.
For the compound `Cc1c(-c2cc(C(=O)O)c3cc(Cl)cc(C)c3n2)oc2ccccc12` [Compound 17, 6-Chloro-8-methyl-2-(3-methylbenzofuran-2-yl)quinoline-4-carboxylic acid], the Activity entry was “++ (activity>50% of CFTR amplifier+VX-809 (3 uM) with compound at 10 uM and Compound A at 3 uM)”.
With `Cc1ccc(O[C@@H](C)c2ccccc2)c2c(C(=O)[O-])cc(-c3cn4ccccc4n3)nc12.[Na+]` [Compound 203, Sodium 2-[Imidazo[1,2-a]pyridin-2-yl]-8-methyl-5-[(1S)-1-phenylethoxy]quinoline-4-carboxylate] the entry was “+ (activity<50% of an CFTR amplifier (Compound A)+VX-809 (3 uM) with compound at 10 uM and Compound A at 3 uM)”; with `Cc1c(-c2cc(C(=O)[O-])c3c(O[C@@H]4C[C@H]5CC[C@@H](C4)O5)ccc(C)c3n2)oc2ccccc12.[Na+]` [Compound 354], “++ (activity>50% of CFTR amplifier+VX-809 (3 uM) with compound at 10 uM and Compound A at 3 uM)”; with `Cc1c(-c2cc(C(=O)[O-])c3c(O[C@H](CCO)c4ccccc4)ccc(C)c3n2)sc2ccccc12.[Na+]` [Compound 311], “++ (activity>50% of CFTR amplifier+VX-809 (3 uM) with compound at 10 uM and Compound A at 3 uM)”.
As for `CCc1ccc(O[C@H]2CCC[C@@H](C)C2)c2c(C(=O)[O-])cc(-c3sc4ccccc4c3C)nc12.[Na+]` [Compound 215, Sodium 8-Ethyl-2-(3-methyl-1-benzothiophen-2-yl)-5-[[(1S,3R)-3-methylcyclohexyl]oxy]quinoline-4-carboxylate], the Activity entry is “++ (activity>50% of CFTR amplifier+VX-809 (3 uM) with compound at 10 uM and Compound A at 3 uM)”.
Take `Cc1c(-c2cc(C(=O)O)c3cc(Br)cc(C)c3n2)oc2ccccc12` [Compound 21, 6-bromo-8-methyl-2-(3-methyl-1-benzofuran-2-yl)quinoline-4-carboxylic acid]: the Activity entry was “++ (activity>50% of CFTR amplifier+VX-809 (3 uM) with compound at 10 uM and Compound A at 3 uM)”.
In the case of `CCc1ccc(O[C@@H]2CCC[C@H](C)C2)c2c(C(=O)O)cc(-c3csc4ccccc34)nc12` [Compound 182, 2-(Benzo[b]thiophen-3-yl)-8-ethyl-5-(((1R,3S)-3-methylcyclohexyl)oxy)quinoline-4-carboxylic Acid], the Activity entry is “++ (activity>50% of CFTR amplifier+VX-809 (3 uM) with compound at 10 uM and Compound A at 3 uM)”.
On to `Cc1ccc2oc(-c3cc(C(=O)O)c4c(C)ccc(C)c4n3)c(C)c2c1` [Compound 127, 2-(3,5-Dimethylbenzofuran-2-yl)-5,8-dimethylquinoline-4-carboxylic acid], for which the Activity result was “++ (activity>50% of CFTR amplifier+VX-809 (3 uM) with compound at 10 uM and Compound A at 3 uM)”.
Take `Cc1c(-c2cc(C(=O)[O-])c3c(OC[C@H]4C[C@H]5CC[C@@H](C4)O5)ccc(C)c3n2)sc2ccccc12.[Na+]` [Compound 359]: the Activity entry was “++ (activity>50% of CFTR amplifier+VX-809 (3 uM) with compound at 10 uM and Compound A at 3 uM)”.
As for `CCc1cc(C)c2nc(-c3oc4ccccc4c3C)cc(C(=O)O)c2c1` [Compound 26, 6-Ethyl-8-methyl-2-(3-methyl-1-benzofuran-2-yl)quinoline-4-carboxylic Acid], the Activity result is “++ (activity>50% of CFTR amplifier+VX-809 (3 uM) with compound at 10 uM and Compound A at 3 uM)”.
Regarding `Cc1c(-c2cc(C(=O)[O-])c3c(O[C@H]4CCC[C@@H](c5ccccc5)C4)ccc(C)c3n2)oc2ccccc12.[Na+]` [Compound 299], the Activity entry is “++ (activity>50% of CFTR amplifier+VX-809 (3 uM) with compound at 10 uM and Compound A at 3 uM)”.
As for `Cc1c(-c2cc(C(=O)O)c3cc(Cl)cc(C)c3n2)sc2ccccc12` [Compound 104, 6-Chloro-8-methyl-2-(3-methyl-1-benzothiophen-2-yl)quinoline-4-carboxylic acid], the entry is “++ (activity>50% of CFTR amplifier+VX-809 (3 uM) with compound at 10 uM and Compound A at 3 uM)”.
In the case of `Cc1c(-c2cc(C(=O)[O-])c3c(O[C@H](C)c4ccccc4)ccc(C)c3n2)oc2ccccc12.[Na+]` [Compound 212], the Activity entry is “++ (activity>50% of CFTR amplifier+VX-809 (3 uM) with compound at 10 uM and Compound A at 3 uM)”.
